Data as given in publication PMC5783306 (Nature, 2017).
One block for each molecule: values may come before it.

How the values were obtained:
TAX-4 = target: T1, TAX-4 (Caenorhabditis elegans, UniProt Q03611); assay: cryo-EM structure at […] Å of cGMP-bound channel; type: cell-based
T1 sequence (Q03611 1-733): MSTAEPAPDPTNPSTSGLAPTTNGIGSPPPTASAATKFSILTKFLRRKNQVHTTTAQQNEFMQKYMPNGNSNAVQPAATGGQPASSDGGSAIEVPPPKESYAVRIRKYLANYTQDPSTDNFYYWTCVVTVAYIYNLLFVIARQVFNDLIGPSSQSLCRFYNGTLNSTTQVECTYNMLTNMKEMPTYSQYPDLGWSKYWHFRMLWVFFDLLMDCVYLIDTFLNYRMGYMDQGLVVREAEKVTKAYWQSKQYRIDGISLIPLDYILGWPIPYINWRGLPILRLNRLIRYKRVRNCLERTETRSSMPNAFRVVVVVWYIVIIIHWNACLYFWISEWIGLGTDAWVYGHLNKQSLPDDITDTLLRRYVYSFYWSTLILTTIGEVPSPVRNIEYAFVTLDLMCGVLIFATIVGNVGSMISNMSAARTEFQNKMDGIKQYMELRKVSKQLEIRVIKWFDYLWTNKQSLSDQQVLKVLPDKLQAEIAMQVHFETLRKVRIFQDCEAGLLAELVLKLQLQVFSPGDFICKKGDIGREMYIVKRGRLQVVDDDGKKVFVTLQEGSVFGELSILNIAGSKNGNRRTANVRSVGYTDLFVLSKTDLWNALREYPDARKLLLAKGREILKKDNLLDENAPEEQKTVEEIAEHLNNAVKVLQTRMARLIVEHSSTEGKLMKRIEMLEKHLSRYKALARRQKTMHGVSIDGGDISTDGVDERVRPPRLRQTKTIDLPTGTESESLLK

cryo-EM structure = target: the molecule itself; assay: cryo-EM structure

- EC50 (TAX-4): 160 nM
Molecule: Nc1nc2c(ncn2[C@@H]2O[C@@H]3COP(=O)(O)O[C@H]3[C@H]2O)c(=O)[nH]1 [cGMP]

B1: TAX-4 (cyclic nucleotide-gated channel CNGA subunit from C. elegans), cGMP-bound (natural protein, UniProt Q03611 1-733, looked up)
chain: T1 sequence (Q03611 1-733)
- stoichiometry N (cryo-EM structure): 4
